Laboratory results as given in patent EP0097546A1, “Benzhydrylsulfinyl ethyl amines, process for their preparation and their use in therapy” (LABORATOIRE L. LAFON Société anonyme dite:, priority 1982, dated 1984).

Experiments:
Type in all cases: in vivo
[1] = tested on: souris mâle; assay: Toxicity, intraperitoneal route; settings: male mouse, I.P. route
Procedure: (§1) On a résumé ci-après les résultats des essais neuro- pshychopharmacologiques qui ont été ertrepris avec le CRL 40883 (produit de l'exemple 1). Dans ces essais le CRL 40883 en solution dans de l'eau distillée à pH 5 a été administré par voie intra- péritonéale sous un volume de 20 ml/kg chez la souris mâle et sous un volume de 5 ml/kg chez le rat mâle.
• Chez la souris mâle la DL-30 par voie I.P. du CRL 40883 est de l'ordre de 250 mg/kg.

[2] = tested on: souris; assay: Global behaviour and reactivities in the mouse; settings: i.p.
Procedure: as §1
(§2) • Des lots de 6 animaux sont observés avant, puis 15 minutes, 30 minutes, 1 h , 2 h , 3 h et 24 h après l'administration de CRL 40 883.

[3] = tested on: rat; assay: Global behaviour and reactivities in the rat; settings: i.p.
Procedure: as §1, §2

[4] = tested on: hypothermies induites par l'apomorphine; assay: Antagonism of apomorphine-induced hypothermia; settings: i.p.
Procedure: as §1

[5] = tested on: hypothermies induites par la réserpine; assay: Antagonism of reserpine-induced hypothermia; settings: i.p.
Procedure: as §1

[6] = tested on: hypothermies induites par l'oxotrémorine; assay: Antagonism of oxotremorine-induced hypothermia; settings: i.p.
Procedure: as §1

[7] = tested on: stéréotypies amphétaminiques; assay: Amphetamine stereotypies; settings: i.p.
Procedure: as §1

[8] = tested on: groupes de souris; assay: Intergroup aggressiveness test; settings: groups of mice, i.p., doses 16 mg/kg and 64 mg/kg
Procedure: as §1

Structure (SMILES): CNCC[S+]([O-])C(c1ccccc1)c1ccccc1 (centres unmarked) [CRL 40883, chlorhydratede N-[2-(benzhydrylsulfinyl)-éthyl]-méthylamine]
- DL-30 [1]: ~250 mg/kg
- comportement et réactivités ([2]; doses 64 mg/kg, 16 mg/kg, 4 mg/kg and 1 mg/kg, observed 15 min to 24 h): n'entraîne pas de modifications sensibles du comportement et des réactivités
- sédation ([2]; mainly at 128 mg/kg): sédation modérée
- réactivité au toucher ([3]; 32 mg/kg, lasting 30 minutes): hyporéactivité au toucher
- tonus musculaire ([3]; 32 mg/kg, lasting 30 minutes): hypotonie musculaire
- symptômes ([3]; doses 8 mg/kg, 2 mg/kg and 0,5 mg/kg): pas de symptômes particuliers
- antagonisme des hypothermies induites par l'apomorphine [4]: antagonisme
- antagonisme des hypothermies induites par la réserpine [5]: antagonisme
- antagonisme des hypothermies induites par l'oxotrémorine [6]: antagonisme
- stéréotypies amphétaminiques [7]: potentialisation des stéréotypies amphétaminiques
- nombre de combats [8]: forte diminution du nombre de combats
